In patent publication US20230014226A1, “NEW COMPOUNDS AND METHODS” (BenevolentAI Bio Limited, priority 2019, published 2023):
Entries after “also recorded” stand apart in the source; their conditions may differ.

Experiments:
[1] = test system: murine Hb9-GFP+ motor neurons in co-culture with ALS patient iAstrocytes; assay: Human iAstrocyte - murine Hb9-GFP+ motor neuron co-culture; assay type: cell-based, human iAstrocytes
Source text: iNPCs (induced Neuronal Progenitor Cells) were derived from ALS patient fibroblasts as described previously (Meyer et al. 20148). iNPCs were differentiated into iAstrocytes by culturing in iAsrocyte media for at least 5 days. Murine motor neurons expressing the green fluorescent protein (GFP) under the Hb9 motor neuron-specific promoter (called from now on Hb9-GFP+) were differentiated from murine embryonic stem cells via embryoid bodies (EBs), as previously described (Haidet-Phillips et al. 20119, Wichterle et al. 200210).
iNPCs and mESC were split into iAstrocyte media and mEB media respectively on the same day, such that iAstrocytes and motor neurons will have both differentiated for 7 days when seeded together in co-culture.
Changed media on iAstrocytes, and split using accutase if 90-100% confluent 3 days after seeding from iNPCs. iAstrocytes were left a further 2 days in iAstrocyte media until seeded onto 384-well plates.
Diluted fibronection 1:400 in PBS, and 5 μL added per well. The plate was incubated with fibronectin at room temp for at least 5 mins.
The media was removed from iAstrocytes, and washed in PBS. 1 mL accutase per 10 cm plate was added, and incubated at 37° C. for 4 mins. The plate was tapped to dislodge any remaining iAstrocytes. The iAstrocytes were resuspended in iAstro media, and centrifuged at 200×g for 4 mins. The supernatant was removed, the falcon was flicked to vortex the cells, and resuspended the cells in an appropriate amount of iAstrocyte media. Counted cells using the haemocytometer, and diluted cells to an appropriate dilution for seeding. Seeded 1-2,000 iAstrocytes in 35 μL media on fibronectin-coated 384-well plates. Centrifuged 384-well plates at 1,760×rpm for 60 s using a PK120 (ALC) centrifuged (in neurogenetics) to collect media and cells to base of wells. Plates were left for 24 h for iAstrocytes to adhere to plate.
Drugs were delivered in 100% drug-grade DMSO to iAstrocyte media using an Echo550 liquid handler (Labcyte). 384-well plates were centrifuged at 1,760×rpm for 60 s using a PK120 (ALC) centrifuge.
2 plates of EBs were collected in a 50 mL tube and centrifuged for 4 mins at 200×g. The supernatant was removed from EBs after centrifugation, and washed in 10 mL PBS then centrifuged again for 4 mins at 200×g, and PBS wash removed.
For each 50 mL tube, 2.75 mL EB dissociation buffer was added and then 250 μL 200 U/mL (10×) Papain. The solution was gently pipetted up and down 10 times, using a P1000 pipette, against the side of the falcon (EB pellet was not pipetted directly). 50 mL tube was put in 37° C. water bath and incubated for 5 mins. Tube removed every 3 mins and gently shaken. After 5 mins, additional 2 mL of EB dissociation and 100 μL 200 U/mL (10×) Papain were added, which was then pipette again 5 times with P1000 pipette, and returned to the water bath for another 5 mins. It was returned to water bath as before, and incubated for no longer than 15-20 mins.
Centrifuged for 5 mins at 300×g. Each 50 mL tube, 2.7 mL EB dissociation was prepared, to which 300 μL FBS and 150 μL 0.5 mg/mL DNaseI was added. The supernatant was removed from dissociated EBs and 3 mL of the FBS/DNaseI mix was added, pipetted up and down with P1000 pipette about 5 times. 5 mL FBS was added very slowly to the bottom of the falcon containing the dissociated EBs. The supernatant was removed and the cells very gently resuspended in about 3 mL MN media (more used if the pellet is large) and filtered through a 40 μm filter. 1 mL extra MN media was added to wash the filter.
2,500 murine Hb9-GFP+ motor neurons were seeded per well in 10 μL motor neuron media on top of the pre-treated iAstrocytes. 384-well plates were centrifuged at 1,760×rpm for 60 s using a PK120 (ALC) centrifuge.
Day8 15 μL motor neuron media were added per well. Hb9-GFP+ motor neurons were imaged using an INCELL analyser 2000 (GE Healthcare)—day 1 of co-culture. […]

[2] = target: T1, recombinant human P450 enzyme 1A1 (Homo sapiens, UniProt P04798); assay: Formation of reactive metabolites (glutathione adduct) by CYP1A1 with human liver cytosol; assay type: in vitro ADME; conditions: human liver cytosol + recombinant CYP1A1, NADPH and GSH
T1 construct: host or cells: Bacterial membranes (bactosomes), inferred from the named control preparation
T1 sequence (P04798 1-512): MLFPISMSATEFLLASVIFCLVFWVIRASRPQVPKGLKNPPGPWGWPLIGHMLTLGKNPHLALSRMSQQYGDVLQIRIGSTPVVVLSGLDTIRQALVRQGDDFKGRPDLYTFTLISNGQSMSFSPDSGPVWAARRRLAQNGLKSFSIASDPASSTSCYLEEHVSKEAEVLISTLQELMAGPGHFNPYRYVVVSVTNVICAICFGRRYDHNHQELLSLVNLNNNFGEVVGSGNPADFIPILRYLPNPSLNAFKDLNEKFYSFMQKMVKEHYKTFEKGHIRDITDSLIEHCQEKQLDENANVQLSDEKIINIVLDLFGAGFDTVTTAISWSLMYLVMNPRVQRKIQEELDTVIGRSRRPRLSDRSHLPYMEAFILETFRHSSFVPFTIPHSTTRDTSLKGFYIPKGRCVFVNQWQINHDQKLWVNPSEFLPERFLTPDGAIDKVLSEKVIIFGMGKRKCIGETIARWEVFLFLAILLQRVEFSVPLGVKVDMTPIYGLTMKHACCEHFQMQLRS
Experimental: Investigations into the potential for test compound to form a reactive metabolite were performed using an adapted method detailed by De Lin et al. Briefly, test compound was pre-incubated (n=2; 50 μM substrate concentration) at 37° C. for 5 min with mixed-gender human liver cytosol (1 mg/mL total protein concentration) in 100 mM phosphate buffer (pH 7.4) with 5 mM MgCl2 in the presence of recombinant human P450 enzyme 1A1 (100 nM), in the presence and absence of 5 mM glutathione. At the end of the pre-incubation period, 2 mM NADPH was added to each sample and the mixture incubated at 37° C. for 60 min. Immediately following the addition of NADPH and after the 60 min incubation period, aliquots of each sample were mixed with MeCN (containing internal standard) to terminate the reaction and precipitate the proteins.
Samples were mixed, centrifuged and following appropriate dilution, supernatants were analysed by LC-MS utilising a high-resolution mass spectrometer to perform metabolite identification and characterisation analysis.

For `Cc1ccc(C(=O)Nc2cn(C(C)C)cn2)cc1C#Cc1cccnc1` [Example 25, N-(1-isopropylimidazol-4-yl)-4-methyl-3-[2-(3-pyridyl)ethynyl]benzamide], the “rescue of motor neuron survival in co-culture with patient-derived iAstrocytes (FIG. 3)” value ([1]; 72 hours co-culture, dose dependant, maximum responses close to positive control (1 μM Nilotinib)) was “rescue motor neuron survival”, the “efficacy at very high concentrations (motor neuron survival)” value ([1]; potentially due to compound toxicity) was “reduction in efficacy at very high concentrations” and the “formation of direct glutathione adduct” value ([2]; 50 μM, 60 min) was “does not form a glutathione adduct; also recorded: no products of direct glutathione conjugation were observed”. The “metabolites identified as products of oxidation and glutathione conjugation” value [2] was “Two very minor metabolites”.
